The record followed here is paper PMC7435819, “Towards the Inhibition of Protein–Protein Interactions (PPIs) in STAT3: Insights into a New Class of Benzothiadiazole Derivatives” (Molecules, 2020).

Like-named read-outs stand apart in the source and are kept apart here. Where no end group is shown, it is not given here. [ ]: non-standard residue; d: D form. pY = N[C@@H](Cc1ccc(OP(=O)(O)O)cc1)C(=O)O

One data set has as its target T1, STAT3 (Homo sapiens, UniProt P40763).
T1 construct: a truncated form of STAT3 (136-705) was constructed and chromatographically purified; made in house
Kind of data set: AlphaScreen-based competitive binding assay, STAT3 SH2 domain vs FITC-GpYLPQTV. The note with it: for IC50: STAT3 wild-type (WT), read-out: STAT3 inhibition: IC50. From the text: (§1) AlphaScreen is an in vitro competitive binding test used to identify compounds that are able to inhibit the binding of proteins containing an SH2 domain to their corresponding phosphopeptides (5-carboxyfluorescein (FITC)-GpYLPQTV for STAT3 and FITC-GpYDKPHVL for STAT1) (Table 2).
(§2) AlphaScreen is a bead-based non-radioactive assay system for the detection of biomolecular interactions in a microtiter plate format. The binding of biological partners brings donor and acceptor beads into close proximity and, as a result, a fluorescent signal between 520 and 620 nm was produced. The AlphaScreen-based assays were performed in a final reaction volume of 25 μL of the assay buffer containing 10 mM HEPES–NaOH (pH 7.4), 50 mM NaCl, 1 mM EDTA (pH 8.0), 0.1% NP-40, and 10 ng/μL bovine serum albumin (BSA) in a 96-well microtiter plate at 25 °C. The pTyr peptide probes used in this study were 5-carboxyfluorescein (FITC)-GpYLPQTV for STAT3 and (FITC)-GpYDKPHVL for STAT1. Plasmid construction and protein expression were performed as previously described; the experimental method is briefly summarized as follows. Considering that the expression of the full-length protein is troublesome, a truncated form of STAT3 (136-705) was constructed and chromatographically purified (AKTA FPLC system; GE Healthcare Bio-Sciences, Piscataway, NJ, USA). The soluble STAT3 fraction was loaded on a HisTrap™ column (GE Healthcare Bio-Sciences) and eluted with an imidazole gradient (50 mM Tris–HCl pH 7.4, 300 mM NaCl, 0.2 mM EDTA, 0.1% (w/v) NP-40, 5 mM β-mercaptoethanol, 10% (v/v) glycerol, and 10–300 mM imidazole). An SDS-PAGE stained with Coomassie Brilliant Blue (CBB) was performed to check the purity of the protein (see Figure S71). Subsequently, the protein was dialyzed (10 mM HEPES-NaOH pH 7.4, 50 mM NaCl, 10 mM β-mercaptoethanol, 0.1 mM EGTA, 0.02% (w/v) NP-40, 0.2 mM phenylmethylsulphonyl fluoride (PMSF), and 10% (v/v) glycerol).
Firstly, 75 nM of each SH2-containing protein were incubated with the test compound (at the following concentrations: 1, 3, 10, and 30 µM) for 15 min. Each protein sample was then incubated for 90 min with 50 nM of its corresponding FITC-pTyr peptide and simultaneously mixed with streptavidin-coated donor beads and anti-FITC acceptor beads before detection at 570 nm using EnVison Xcite (PerkinElmer, Waltham, MA, USA).
(In Alpha technology, singlet oxygen from a donor bead excites a nearby acceptor bead.)

For a further data set, the target named is T2, STAT1 (Homo sapiens, UniProt P42224).
T2 sequence (P42224 1-750): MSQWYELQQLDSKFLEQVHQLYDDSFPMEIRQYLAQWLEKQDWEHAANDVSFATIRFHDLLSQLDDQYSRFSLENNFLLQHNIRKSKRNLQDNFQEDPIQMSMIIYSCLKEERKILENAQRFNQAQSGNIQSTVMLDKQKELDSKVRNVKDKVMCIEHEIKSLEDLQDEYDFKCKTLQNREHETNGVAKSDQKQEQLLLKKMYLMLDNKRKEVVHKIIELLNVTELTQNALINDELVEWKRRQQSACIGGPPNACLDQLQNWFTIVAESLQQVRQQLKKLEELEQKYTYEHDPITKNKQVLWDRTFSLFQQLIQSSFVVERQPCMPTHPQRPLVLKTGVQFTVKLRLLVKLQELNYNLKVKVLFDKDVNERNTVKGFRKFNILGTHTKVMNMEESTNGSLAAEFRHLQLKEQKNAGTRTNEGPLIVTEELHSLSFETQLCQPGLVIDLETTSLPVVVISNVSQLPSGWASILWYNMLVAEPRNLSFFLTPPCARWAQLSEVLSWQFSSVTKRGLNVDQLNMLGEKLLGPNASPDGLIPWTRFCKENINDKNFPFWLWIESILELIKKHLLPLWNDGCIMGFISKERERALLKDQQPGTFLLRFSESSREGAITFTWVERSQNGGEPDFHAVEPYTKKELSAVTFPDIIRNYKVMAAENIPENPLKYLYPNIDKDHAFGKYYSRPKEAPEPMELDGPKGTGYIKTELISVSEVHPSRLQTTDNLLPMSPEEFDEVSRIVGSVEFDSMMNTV
Kind of data set: AlphaScreen-based competitive binding assay, STAT1 vs FITC-GpYDKPHVL. The note with it: read-out: STAT1 inhibition: IC50.
Description: as §1
as §2, with “The soluble STAT3 fraction was loaded on a HisTrap™ column (GE Healthcare Bio-Sciences) and eluted with an imidazole gradient (50 mM Tris–HCl pH 7.4, 300 mM NaCl, 0.2 mM EDTA, 0.1% (w/v) NP-40, 5 mM β-mercaptoethanol, 10% (v/v) glycerol, and 10–300 mM imidazole). An SDS-PAGE stained with Coomassie Brilliant Blue (CBB) was performed to check the purity of the protein (see Figure S71). Subsequently, the protein was dialyzed (10 mM HEPES-NaOH pH 7.4, 50 mM NaCl, 10 mM β-mercaptoethanol, 0.1 mM EGTA, 0.02% (w/v) NP-40, 0.2 mM phenylmethylsulphonyl fluoride (PMSF), and 10% (v/v) glycerol).” left out

Data set [1] concerns the target T3, truncated form of STAT3 (136-705) (UniProt P40763 136-705).
T3 construct: STAT3, residues 136-705; also called STAT3 wild-type; source: plasmid construction and protein expression as previously described [52]; chromatographically purified (HisTrap column, imidazole gradient), dialyzed
The data set can be described thus: AlphaScreen or HTRF; same procedure with STAT3 single-cysteine mutants; compound 1 (0.3-30 µM) premixed with L-Cys in PBS and AlphaScreen buffer, mixed with the STAT3 mutant solution before adding the FITC-peptide. The following applies: both partners purified.

[2] abbreviates: 30 µM, n.a.: not active, read-out: STAT3 % Inhibition (30 µM).
Setting [3] is: Table 1, AlphaScreen-based assay at 30 µM, STAT3-SH2 domain, read-out: % Inhibition.

T1 sequence (P40763 136-705): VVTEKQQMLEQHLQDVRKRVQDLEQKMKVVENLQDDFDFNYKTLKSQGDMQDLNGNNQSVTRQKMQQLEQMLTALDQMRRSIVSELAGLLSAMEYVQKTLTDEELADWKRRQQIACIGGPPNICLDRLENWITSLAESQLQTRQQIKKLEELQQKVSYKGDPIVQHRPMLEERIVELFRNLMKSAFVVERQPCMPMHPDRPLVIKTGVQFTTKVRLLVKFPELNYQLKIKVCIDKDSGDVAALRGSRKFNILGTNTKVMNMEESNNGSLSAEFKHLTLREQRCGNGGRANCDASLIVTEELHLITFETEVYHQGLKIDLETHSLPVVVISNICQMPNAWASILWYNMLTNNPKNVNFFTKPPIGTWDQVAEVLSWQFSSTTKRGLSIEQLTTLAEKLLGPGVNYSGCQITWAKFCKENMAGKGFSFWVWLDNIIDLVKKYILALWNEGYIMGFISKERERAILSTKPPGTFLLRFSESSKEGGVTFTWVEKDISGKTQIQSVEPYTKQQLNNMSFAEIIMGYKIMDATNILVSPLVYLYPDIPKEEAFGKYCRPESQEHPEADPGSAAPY
T3 sequence (P40763 136-705): as above

For `O=C(CN1c2ccccc2NS1(=O)=O)NCCc1ccccc1` [Compound 4, 2-(2,2-Dioxo-3H-2,1,3-benzothiadiazol-1-yl)-N-(2-phenylethyl)acetamide], the melting point is 172 °C. Also, the inhibition at 30 µM on STAT3 (setting [2]) came to 17.3 ± 1.3%. The IC50 at STAT3 was more than 30 µM.
Consider `CC(C)CCNC(=O)CCc1ccc2c(c1)NS(=O)(=O)N2` [Compound 1g, 3-(2,2-Dioxo-1H,3H-2,1,3-benzothiadiazol-5-yl)-N-(3-methylbutyl)propanamide], for which the inhibition at 30 µM at STAT3 (setting [2]) was determined as 11 ± 2.1%. For the same molecule, the IC50 on STAT3 was more than 30 µM.
Turning to `CN1C(Cl)=NS(=O)(=O)c2ccccc21` [I], the inhibition at 30 µM at STAT3 (setting [3]) was found to be 79%.
As for `Cc1ccc2c(c1)N(C)S(=O)(=O)N2C` [Compound 2b, 1,3,5-Trimethyl-2,1,3-benzothiadiazole-2,2-dioxide], on STAT3 (setting [2]), the inhibition at 30 µM came out at 8.9 ± 1.1%. The IC50 at STAT3 is more than 30 µM.
The molecule `O=S1(=O)Nc2ccc(-c3ccccc3)cc2N1` [Compound 1i, 5-Phenyl-1H,3H-2,1,3-benzothiadiazole-2,2-dioxide] returned a melting point of 180 to 185 °C. Also, at STAT3 (setting [2]), the inhibition at 30 µM came to 6.1 ± 0.9%. Further, the IC50 on STAT3 was more than 30 µM.
As for `CC(=O)Nc1ccc2c(c1)NS(=O)(=O)N2` [Compound 1f, N-(2,2-Dioxo-1H,3H-2,1,3-benzothiadiazol-5-yl)acetamide], the inhibition at 30 µM at STAT3 (setting [2]) stood at 18.9 ± 2.3%. Further, the IC50 at STAT3 was more than 30 µM.
On the same counts, the results for `O=S1(=O)Nc2ccc(Cl)cc2N1` [Compound 1e, 5-Chloro-1H,3H-2,1,3-benzothiadiazole-2,2-dioxide] are 28.2 ± 1.4% and more than 30 µM.
For the molecule `Oc1nc2ccccc2[nH]1` [Compound 5, 2,3-Dihydro-1H-1,3-benzodiazol-2-one], the inhibition at 30 µM on STAT3 (setting [2]) is 3.5 ± 5.6%. In addition, the IC50 on STAT3 is more than 30 µM.
In turn, `O=S1(=O)Nc2ccc(C(F)(F)F)cc2N1` [Compound 1c, 5-(Trifluoromethyl)-1H,3H-2,1,3-benzothiadiazole-2,2-dioxide] showed a melting point of 143 °C. On STAT3 (setting [2]), the inhibition at 30 µM is 8.2 ± 1.6%. Further, the IC50 on STAT3 was more than 30 µM.
With `O=[N+]([O-])c1ccc2c(c1)NS(=O)(=O)N2` [Compound 1d, 5-Nitro-1H,3H-2,1,3-benzothiadiazole-2,2-dioxide], the inhibition at 30 µM on STAT3 (setting [2]) is 56.9 ± 3.6%. Also, the figures for the IC50 on STAT3 and at STAT1 were 25.1 µM and 15.9 µM, respectively.
Turning to `CCN1C(Cl)=NS(=O)(=O)c2ccccc21` [II], the inhibition at 30 µM at STAT3 (setting [3]) turned out to be 43.4%.
Same read-out and setting: the result for `NC1=NS(=O)(=O)Nc2nonc21` [III] reads 85.4%.
Molecule `O=S1(=O)N(Cc2ccccc2)c2ccccc2N1Cc1ccccc1` [Compound 3, 1,3-Dibenzyl-2,1,3-benzothiadiazole-2,2-dioxide] yielded a melting point of 134 °C.
As to `Cc1ccc2c(c1)NS(=O)(=O)N2` [Compound 1b, 5-Methyl-1H,3H-2,1,3-benzothiadiazole-2,2-dioxide], the melting point came to 157 °C. Also, the inhibition at 30 µM on STAT3 (setting [2]) was determined as 14.5 ± 0.6%. In addition, at STAT3, the IC50 is more than 30 µM.
As to `O=S1(=O)Nc2ccccc2N1` [Compound 1a, 1H,3H-2,1,3-Benzothiadiazole-2,2-dioxide], the inhibition at 30 µM at STAT3 (setting [2]) amounted to 16.4 ± 0.8%. The IC50 on STAT3 is more than 30 µM.
With `O=S1(=O)Cc2ccccc2C1` [Compound 6], on STAT3 (setting [2]), the inhibition at 30 µM was 11.5 ± 0.8%. For the same molecule, the IC50 at STAT3 was more than 30 µM.
In the case of `Cc1cc2c(cc1Br)NS(=O)(=O)N2` [Compound 2a, 5-Bromo-6-methyl-1H,3H-2,1,3-benzothiadiazole-2,2-dioxide], the melting point stood at 185 °C. In addition, the inhibition at 30 µM on STAT3 (setting [2]) is 25.6 ± 1.2%. Further, the IC50 on STAT3 was more than 30 µM.
On to `O=C(CCc1ccc2c(c1)NS(=O)(=O)N2)Nc1ccccc1` [Compound 1h, 3-(2,2-Dioxo-1H,3H-2,1,3-benzothiadiazol-5-yl)-N-phenylpropanamide], for which the melting point lay within 192 to 197 °C.

B1: 5-carboxyfluorescein (FITC)-GpYLPQTV (peptide)
peptide: G[pY]LPQTV
modifications: not fully specified (N-terminus)
notes: also called pTyr peptide probe for STAT3; phosphotyrosine peptide
In the case of B1, the binding result in data set [1] is given as “binds”.

Broadly, the inhibition is the drop in the measured response relative to a control, in per cent. As usually defined, the IC50 is the point on the concentration scale where inhibition reaches its midpoint. As usually defined, the melting point is the temperature, or range, at which the solid turns liquid.
